In patent US4068074A, “Cephalosporin derivatives having at the 3-position of the cephem ring a heterocyclic thiomethyl group with a carboxy or sulfo group and at the 7-position of the cephem ring an α-heterocylic acylaminophenyl-acetamide group” (priority 1974, dated 1978):
≈ marks a conversion by molar mass, not a printed value. Like-named read-outs stand apart in the source and are kept apart here.

Experiments:
[1] = Residual antibacterial activity after incubation with 90% plasma (Table 4); format: in vitro ADME, male Sprague-Dowley rat; conditions: 90% rat plasma; for remaining at 0.25 h / remaining at 0.5 h / remaining at 1.5 h: 90% plasma; for remaining at 0.25 h: 15 minute; for remaining at 0.5 h: 30 minute; for remaining at 1.5 h: 90 minute; for Residual activity: 0 minute
Experimental: (§1) The relation between the reaction period of time and the antibacterial activity (residual activity, %) when these compounds are incubated with the plasma and the liver homogenate of a male Sprague-Dowley rat is shown in Table 4. The residual antibacterial activity was measured by a thin-layer cup method according to Bacillus subtilis ATCC 6633.
A*Residual activity (%) when incubated with 90% plasma.

[2] = test system: Staphylococcus aureus 209P; assay: MIC against bacteria (Table I), strain (16); format: cell-based
Text: (§2) Now, for illustrating the excellent pharmacological effects of the compounds of this invention, the values of MIC (γ/ml.) of the compounds against various bacteria are shown in Table 1, in which the compounds of this invention used are shown by example numbers.
(16) Staphylococcus aureus 209P

Proteus vulgaris 0X 19US = assay: MIC against bacteria (Table I), strain (2); format: cell-based; conditions: 0X19US
Text: as §2
(2) Proteus vulgaris 0X 19US

Shigella sonnei II 37148 = assay: MIC against bacteria (Table I), strain (12); format: cell-based; conditions: II37148; (12) Shigella sonnei II 37148; read-out: MIC
Text: as §2

[3] = test system: Shigella flexneri 2a 1675; assay: MIC against bacteria (Table I), strain (11); format: cell-based; conditions: 2A1675; (11) Shigella flexneri 2a 1675; read-out: MIC
Text: as §2

Salmonella typhi H901 W = assay: MIC against bacteria (Table I), strain (9); format: cell-based; conditions: Salmonella enterica, TYPHI
Text: as §2
(9) Salmonella typhi H901 W

[4] = Residual antibacterial activity after incubation with 10% liver homogenate (Table 4); format: in vitro ADME, male Sprague-Dowley rat; conditions: for remaining at 0.25 h / remaining at 0.5 h / remaining at 1.5 h: 10% liver homogenate
Experimental: as §1
B*Residual activity (%) when incubated with 10% liver homogenate.

Staphylococcus Onuma = assay: MIC against bacteria (Table I), strain (18); format: cell-based
Text: as §2
(18) Staphylococcus Onuma

[5] = test system: Bacillus subtilis ATCC 6633; assay: MIC against bacteria (Table I), strain (14); format: cell-based; conditions: ATCC6633
Text: as §2
(14) Bacillus subtilis ATCC 6633

[6] = test system: Pseudomonas aeruginosa 99 (Gentamycin resistant); assay: MIC against bacteria (Table I), strain (5); format: cell-based
Text: as §2
(5) Pseudomonas aeruginosa 99 (Gentamycin resistant)

[7] = test system: Pseudomonas aeruginosa ATCC 8689; assay: MIC against bacteria (Table I), strain (4); format: cell-based; conditions: ATCC8689
Text: as §2
(4) Pseudomonas aeruginosa ATCC 8689

[8] = test system: Klebsiella pneumoniae ATCC 10031; assay: MIC against bacteria (Table I), strain (8); format: cell-based; conditions: ATCC10031
Text: as §2
(8) Klebsiella pneumoniae ATCC 10031

[9] = test system: β-lactamase isolated from Pseudomonas aeruginosa 21; assay: Resistance to β-lactamase: amount of unaltered test sample (Table 3); format: biochemical; conditions: initial concentration 100γ/ml
Text: For example, the relation between the amount (γ/ml) of an unaltered test sample at an initial concentration of the sample 100γ/ml against β-lactamase isolated from Pseudomonas aeruginosa 21 at various dilutions of the enzyme were investigated.

[10] = test system: Staphylococcus Shimanishi; assay: MIC against bacteria (Table I), strain (17); format: cell-based
Text: as §2
(17) Staphylococcus Shimanishi

Salmonella enteritidis = assay: MIC against bacteria (Table I), strain (10); format: cell-based; conditions: Salmonella enterica, ENTERITIDIS
Text: as §2
(10) Salmonella enteritidis

[11] = test system: Escherichia coli kauffmann 0-1; assay: MIC against bacteria (Table I), strain (7); format: cell-based; conditions: Escherichia coli
Text: as §2
(7) Escherichia coli kauffmann 0-1

[12] = format: in vitro ADME
Text: Still another advantage of the compounds of this invention is that they are not inactivated in the internal organs of the body. For example, when the compounds of this invention and cephalotin are each homogenized with internal organs, the compounds of this invention are not decomposed while cephalotin is decomposed.

[13] = test system: Bacillus megatherium 10778; assay: MIC against bacteria (Table I), strain (13); format: cell-based; conditions: (13) Bacillus megatherium 10778; read-out: MIC
Text: as §2

[14] = test system: Psuedomonas ovalis IMA 1002; assay: MIC against bacteria (Table I), strain (6); format: cell-based; conditions: (6) Psuedomonas ovalis IMA 1002; read-out: MIC
Text: as §2
(6) Psuedomonas ovalis IMA 1002

[15] = test system: Micrococcus flavus ATCC 10240; assay: MIC against bacteria (Table I), strain (15); format: cell-based; conditions: ATCC10240
Text: as §2
(15) Micrococcus flavus ATCC 10240

[16] = Solubility of salts in water (Table 2); format: physicochemical; conditions: disodium salt, water, showing pH 7.4; read-out: Solubility: disodium salt dissolved in water in an amount of
Text: An advantage of the compounds of this invention is that the salts, for example, sodium salts of these compounds are readily soluble in water at pH of living bodies, which makes them suitable for injections at high concentration. The solubility of these compounds are illustrated in Table 2 together with a control example.

Proteus vulgaris OXK US = assay: MIC against bacteria (Table I), strain (1); format: cell-based; conditions: (1) Proteus vulgaris OXK US; read-out: MIC
Text: as §2
(1) Proteus vulgaris OXK US

[17] = test system: Proteus mirabilis IXM OM-19; assay: MIC against bacteria (Table I), strain (3); format: cell-based; conditions: IXMOM19; (3) Proteus mirabilis IXM OM-19; read-out: MIC
Text: as §2
(3) Proteus mirabilis IXM OM-19

[18] = (2) Proteus vulgaris 0X 19US, read-out: MIC
[19] = 10% rat liver homogenate, 15 minute, read-out: Residual activity
[20] = 10% rat liver homogenate, 30 minute, read-out: Residual activity
[21] = 10% rat liver homogenate, 90 minute, read-out: Residual activity
[22] = 10% rat liver homogenate, 0 minute
[23] = (18) Staphylococcus Onuma, read-out: MIC
[24] = (14) Bacillus subtilis ATCC 6633, read-out: MIC
[25] = (5) Pseudomonas aeruginosa 99 (Gentamycin resistant), read-out: MIC
[26] = (4) Pseudomonas aeruginosa ATCC 8689, read-out: MIC

| SMILES | remaining at 0.25 h [1] [%] | remaining at 0.5 h [1] [%] | remaining at 1.5 h [1] [%] | Residual activity [1] [%] | MIC ([2]; Staphylococcus aureus, 209P) [µg/mL] | MIC (Shigella sonnei II 37148) [µg/mL] | MIC [3] [µg/mL] | MIC (Salmonella typhi H901 W) [µg/mL] | MIC ([8]; Klebsiella pneumoniae) [µg/mL] | Amount of unaltered test sample ([9]; β-lactamase dilution ×2) [µg/mL] | Amount of unaltered test sample ([9]; β-lactamase dilution ×4) [µg/mL] | Amount of unaltered test sample ([9]; β-lactamase dilution ×8) [µg/mL] | Amount of unaltered test sample ([9]; β-lactamase dilution ×16) [µg/mL] | Amount of unaltered test sample ([9]; β-lactamase dilution ×32) [µg/mL] | Amount of unaltered test sample ([9]; β-lactamase dilution ×64) [µg/mL] | Amount of unaltered test sample ([9]; β-lactamase dilution ×128) [µg/mL] | Amount of unaltered test sample ([9]; β-lactamase dilution ×256) [µg/mL] | Amount of unaltered test sample ([9]; β-lactamase dilution ×512) [µg/mL] | MIC (Salmonella enteritidis) [µg/mL] | MIC [11] [µg/mL] | further results |
| --- | --- | --- | --- | --- | --- | --- | --- | --- | --- | --- | --- | --- | --- | --- | --- | --- | --- | --- | --- | --- | --- |
| CC(=O)OCC1=C(C(=O)O)N2C(=O)[C@@H](NC(=O)Cc3cccs3)[C@H]2SC1 [Cephalotin, reference compound] | 87 | 66 | 36 | 100 | 0.19 (≈ 0.479 µM) | 6.25 (≈ 15.8 µM) | 6.25 (≈ 15.8 µM) | 1.56 (≈ 3.93 µM) | 0.78 (≈ 1.97 µM) | 0 | 0 | 0 | 0 | 2.6 | 11.8 | 46.8 | 81.6 | 100 | 0.39 (≈ 0.984 µM) | 3.13 (≈ 7.9 µM) | MIC (Proteus vulgaris 0X 19US; Proteus vulgaris): 12.5 µg/mL (≈ 31.5 µM); Residual activity ([4]; rat, 0 min): 100%; remaining at 0.25 h ([4]; rat): 17.2%; remaining at 0.5 h ([4]; rat): 12.2%; remaining at 1.5 h ([4]; rat): 12.6%; MIC (Staphylococcus Onuma; Staphylococcus): 0.39 µg/mL (≈ 0.984 µM); MIC ([5]; Bacillus subtilis): < 0.09 µg/mL; MIC ([6]; Pseudomonas aeruginosa): > 100 µg/mL; MIC ([7]; Pseudomonas aeruginosa): > 100 µg/mL; Amount of unaltered test sample ([9]; β-lactamase dilution ×1024): 100 µg/mL; MIC ([10]; Staphylococcus): 0.39 µg/mL (≈ 0.984 µM); Decomposition when homogenized with internal organs [12]: decomposed |
| O=C(O)CSc1nnc(SCC2=C(C(=O)O)N3C(=O)[C@@H](NC(=O)[C@H](NC(=O)c4cnccc4O)c4ccccc4)[C@H]3SC2)s1 [Example 4, 7-[D-α-(4-hydroxynicotinoylamido)-α-phenylacetamido]-3-(5-carboxymethylthio-1,3,4-thiadiazol-2-yl)thiomethyl-Δ^3-cephem-4-carboxylic acid] | 97 | 93.9 | 103 | 100 |  | 3.13 (≈ 4.64 µM) | 0.78 (≈ 1.16 µM) | 1.56 (≈ 2.31 µM) | 3.13 (≈ 4.64 µM) | 0 | 29.6 | 61.0 | 100 | 100 | 100 | 100 | 100 | 100 | 0.39 (≈ 0.578 µM) | 3.13 (≈ 4.64 µM) | MIC [13]: 0.19 µg/mL (≈ 0.282 µM); MIC [14]: 6.25 µg/mL (≈ 9.26 µM); MIC ([2]; (16) Staphylococcus aureus 209P, read-out: MIC): 0.78 µg/mL (≈ 1.16 µM); MIC (Proteus vulgaris 0X 19US; [18]): 0.19 µg/mL (≈ 0.282 µM); MIC ([15]; Micrococcus flavus): 3.13 µg/mL (≈ 4.64 µM); remaining at 0.25 h [4, 19]: 93.5%; remaining at 0.5 h [4, 20]: 91.3%; remaining at 1.5 h [4, 21]: 102%; Residual activity [4, 22]: 100%; MIC (Staphylococcus Onuma; [23]): 6.25 µg/mL (≈ 9.26 µM); MIC [5, 24]: 0.19 µg/mL (≈ 0.282 µM); solubility [16]: > 200 mg/mL; MIC [6, 25]: 6.25 µg/mL (≈ 9.26 µM); MIC [7, 26]: 12.5 µg/mL (≈ 18.5 µM); Amount of unaltered test sample ([9]; β-lactamase dilution ×1024): 100 µg/mL; MIC ([10]; Staphylococcus): 3.13 µg/mL (≈ 4.64 µM); MIC (Proteus vulgaris OXK US): < 0.09 µg/mL; MIC [17]: 0.39 µg/mL (≈ 0.578 µM) |
| O=C(O)CCc1nnc(SCC2=C(C(=O)O)N3C(=O)[C@@H](NC(=O)[C@H](NC(=O)c4cnccc4O)c4ccccc4)[C@H]3SC2)s1 [Example 6, 7-[D-α-(4-hydroxynicotinoylamido)-α-phenylacetamido]-3-(5-carboxyethyl-1,3,4-thiadiazol-2-yl)thiomethyl-Δ^3-cephem-4-carboxylic acid] | 92 | 102 | 102 | 100 | 1.56 (≈ 2.38 µM) | 3.13 (≈ 4.77 µM) | 0.78 (≈ 1.19 µM) | 1.56 (≈ 2.38 µM) |  |  |  |  |  |  |  |  |  |  | 0.39 (≈ 0.594 µM) | 3.13 (≈ 4.77 µM) | MIC [13]: 0.39 µg/mL (≈ 0.594 µM); MIC [14]: 6.25 µg/mL (≈ 9.52 µM); MIC (Proteus vulgaris 0X 19US; [18]): < 0.09 µg/mL; MIC ([15]; (15) Micrococcus flavus ATCC 10240, read-out: MIC): 6.25 µg/mL (≈ 9.52 µM); remaining at 0.25 h [4, 19]: 95.7%; remaining at 0.5 h [4, 20]: 89.1%; remaining at 1.5 h [4, 21]: 91.3%; Residual activity [4, 22]: 100%; MIC (Staphylococcus Onuma; [23]): 12.5 µg/mL (≈ 19 µM); MIC [5, 24]: 0.39 µg/mL (≈ 0.594 µM); solubility [16]: > 200 mg/mL; MIC [6, 25]: 6.25 µg/mL (≈ 9.52 µM); MIC [7, 26]: 12.5 µg/mL (≈ 19 µM); MIC ([8]; (8) Klebsiella pneumoniae ATCC 10031, read-out: MIC): 6.25 µg/mL (≈ 9.52 µM); MIC ([10]; (17) Staphylococcus Shimanishi, read-out: MIC): 6.25 µg/mL (≈ 9.52 µM); MIC (Proteus vulgaris OXK US): < 0.09 µg/mL; MIC [17]: 0.39 µg/mL (≈ 0.594 µM) |
